Values of other authors, collected in patent US10113200B2, “Genes associated with dasatinib sensitivity” (MEMORIAL SLOAN-KETTERING CANCER CENTER, priority 2012, dated 2018).

Tested on: patients with chronic phase CML
Settings: 100 mg once-daily compared with 70 mg twice-daily

Q: For `Cc1nc(Nc2ncc(C(=O)Nc3c(C)cccc3Cl)s2)cc(N2CCN(CCO)CC2)n1` [dasatinib], which safety profile is on record?
A: Its safety profile is “improves the safety profile, particularly decreasing pleural effusion and thrombocytopenia, while maintaining efficacy”.
